Source: patent US20220378923A1, “BET DEGRADER” (KYOWA KIRIN CO., LTD., priority 2019, published 2022)

Test system: MYC mRNA expression in SU-DHL-4 cells
Assay: Suppressive effect on MYC mRNA expression (Test Example 2)
Format: cell-based, human
Conditions: test compound 100 nmol/L, 6 hours, qRT-PCR corrected by ACTB, GAPDH, HPRT1
Summary of the method: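 SU-DHL-4 cells were treated for 6 h at 37 °C with compound (0.1% DMSO final). MYC mRNA was measured by TaqMan qRT-PCR and normalised to the geometric mean of ACTB, GAPDH and HPRT1. Suppression was calculated relative to untreated wells.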

## Cc1sc2c(c1C)C(c1ccc(Cl)cc1)=N[C@@H](CC(=O)NCCOCCOCCOCCOCCOCCOCCOCCNC(=O)C[C@@H]1N=C(c3ccc(Cl)cc3)c3c(sc(C)c3C)-n3c(C)nnc31)c1nnc(C)n1-2 [compound 2, reference compound]
  Suppression Rate of MYC mRNA Expression (%): 57.7%
